Assay results reported in paper PMC9741201, “X-ray Structures and Computational Studies of Two Bioactive 2-(Adamantane-1-carbonyl)-N-substituted Hydrazine-1-carbothioamides” (Molecules, 2022).
Like-named read-outs stand apart in the source and are kept apart here.

Biological target: urease (Jack bean) (Canavalia ensiformis, UniProt P07374)
Assay: in vitro urease inhibition, indophenol method
Assay type: biochemical

urease (Jack bean), sequence (P07374 whole entry, looked up): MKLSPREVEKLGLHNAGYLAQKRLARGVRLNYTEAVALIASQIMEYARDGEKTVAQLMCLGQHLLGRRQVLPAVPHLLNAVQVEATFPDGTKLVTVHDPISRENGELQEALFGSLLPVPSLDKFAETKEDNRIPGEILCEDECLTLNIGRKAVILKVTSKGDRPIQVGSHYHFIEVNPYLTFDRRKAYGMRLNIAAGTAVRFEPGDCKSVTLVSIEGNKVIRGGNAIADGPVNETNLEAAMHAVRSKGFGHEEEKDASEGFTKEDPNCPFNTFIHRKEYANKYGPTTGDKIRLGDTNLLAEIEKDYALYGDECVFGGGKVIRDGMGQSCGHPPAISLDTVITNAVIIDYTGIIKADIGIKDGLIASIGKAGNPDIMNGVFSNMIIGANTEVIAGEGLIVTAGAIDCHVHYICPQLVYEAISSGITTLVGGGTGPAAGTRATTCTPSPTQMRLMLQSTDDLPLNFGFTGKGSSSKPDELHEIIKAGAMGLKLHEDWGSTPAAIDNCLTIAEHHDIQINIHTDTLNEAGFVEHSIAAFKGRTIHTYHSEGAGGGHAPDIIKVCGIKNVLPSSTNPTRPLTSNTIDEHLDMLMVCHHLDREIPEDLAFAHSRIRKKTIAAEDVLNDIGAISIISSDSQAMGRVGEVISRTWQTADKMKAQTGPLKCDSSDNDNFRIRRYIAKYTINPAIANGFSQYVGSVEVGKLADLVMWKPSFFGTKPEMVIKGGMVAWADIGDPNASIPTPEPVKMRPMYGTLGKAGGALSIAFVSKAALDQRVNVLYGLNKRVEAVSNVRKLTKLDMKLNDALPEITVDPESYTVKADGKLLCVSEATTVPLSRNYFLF

Row | SMILES | IC50 [µM] | IC50 (read-out: IC50 ± SEM (μM) *) [µM]
1 | CC(C)(C)NC(=S)NNC(=O)C12CC3CC(CC(C3)C1)C2 [compound 1, 2-(Adamantane-1-carbonyl)-N-(tert-butyl)hydrazine-1-carbothioamide] | 1.2 ± 0.07 | 
2 | O=C(NNC(=S)NC1CCCCC1)C12CC3CC(CC(C3)C1)C2 [compound 2, 2-(Adamantane-1-carbonyl)-N-cyclohexylhydrazine-1-carbothioamide] |  | 2.44 ± 0.11
